Results on one molecule are retold here after patent US20050287085A1, “Composition for improving the physico-chemical properties of apatite-based materials, uses thereof and method using same” (DENTSPLY INTERNATIONAL INC., priority 2002, published 2005).

This test can be described thus: Substitution in treated hydroxyapatite, mass spectrometry. The text has this: The analysis of the samples of treated hydroxyapatite is continued by mass spectrometry. The percentage of calcium substituted by titanium and the percentage of hydroxyl groups substituted by fluorine are compared with those obtained after bringing the hydroxyapatite into contact with the sodium fluoride solution.

As to `[F-].[Na+]` [NaF, Sodium fluoride], the “Substitution of Ca by Ti” value was 0.3% and the “Substitution of OH by F” value stood at 52.0%.
